According to patent publication US8377934B2, “Use of stilbene derivatives for treatment and prevention of aquatic mold infections” (State of Israel, Ministry of Agriculture & Rural …, priority 2006, dated 2013):
≈ marks a conversion by molar mass, not a printed value.

What was measured:
ICR mice = assay: Intravenous maximal tolerated dose in mice; type: in vivo; conditions: male ICR mice
Description: Blankophor® BA was prepared at various concentrations in 5% dextrose and filter sterilized by passage through a sterile 0.2 μm pore size cellulose acetate filter (Schleicher & Schuell, Dassel, Germany). Male albino ICR mice (weight 30 g) were injected through the tail vein with various doses of Blankophor® BA. Each dosage form was administered intravenously as single bolus injection of 0.1 ml of the same dose every 10 min to a group of 10 mice until death was observed. The survival of mice that received the maximal tolerated dose (MTD) was monitored for 8 days.

S. parasitica T-1 = assay: Agar-dilution susceptibility testing (filamentous hyphae); type: cell-based, Saprolegnia parasitica; conditions: 24 h
Description: (§1) Two methods were used, each suitable for a different phase of the asexual life cycle of Saprolegnia spp.: i) the broth macrodilution method, for determination of susceptibility of zoospores and cysts; and ii) the agar-dilution method for determination of susceptibility of filamentous hyphae. Each compound was tested three times in each method. Malachite Green was used as positive control.
Twofold serial dilutions were prepared in double distillated sterile water with final drug concentrations ranging from 10,000 to 0.01 mg/L in a final volume of 1.0 ml. […] The mixture was vortexed, and poured into small plates. After agar solidification a small measured piece, taken from a 7-10 day old culture of S. parasitica T-1 on GP-PS medium was placed upside down on each plate. The plates were incubated at room temperature (15-20° C.) for 24 h.

S. parasitica [1] = assay: Tilapia-saprolegniosis established infection model; type: in vivo; conditions: 50 and 100 mg/L on 3rd and 8th day
Description: Tilapia were exposed to S. parasitica and treated with Blankophor® BA (100, 50 and 25 mg/L), as described in Example 4, with the exception that Blankophor® BA treatment was started on the 3rd day after initiation of the infection, and repeated on the 8th day. By the starting point of the Blankophor® BA treatment, approximately 50% of the fish had established infection, as indicated by the presence of white skin lesions and a mortality rate of approximately 30%.

Microcystis = assay: Delayed Fluorescent Excitation Spectroscopy (DFES) of pure algal culture; type: cell-based, Microcystis sp.; conditions: 100 mg/L
Description: (§2) The Delayed Fluorescent Excitation Spectroscopy (DFES) method was used for qualitative and quantitative assessment of the influence of Blankophor® BA on the natural population of phytoplankton, and on specific algae strains. Delayed fluorescence is a unique characteristic of photosynthetically active cells, as it is an outcome of recombination that takes place in the thylakoids in the dark (Yacobi Y. Z., V. Gerhardt, Y. Gonen-Zurgil, and A. Sukenik. 1998. Delayed fluorescence excitation spectroscopy: a rapid method for the qualitative and quantitative assessment of natural population of phytoplankton. Wat. Res. 00:1-6).
(§3) Samples from Lake Kinneret and pure cultures of Peridinium sp. and Microcystis sp. were exposed to Blankophor® BA (100 mg/L), for a few minutes and the concentration of chlorophyll-a was determined (in duplicate) according to the excitation spectrum examined (range from 400 to 730 nm). In addition, the exposed and non-exposed samples were assessed for carbon uptake with a ^14C technique.

[2] = system: Lake Kinneret water samples; assay: Delayed Fluorescent Excitation Spectroscopy (DFES) of natural phytoplankton; type: cell-based; conditions: 100 mg/L; 4.6 μg/L prior to exposure
Description: as §2, §3

S. parasitica [3] = assay: In vitro susceptibility of S. parasitica in Table 4; type: cell-based, Saprolegnia parasitica
Description: The in vitro susceptibility of Saprolegnia parasitica T-1 and S. parasitica CBS 540.67 to various compounds was determined by the agar-dilution and broth macrodilution methods.
as §1
This method is a modification of the method used for molds according to EUCAST 7.1 (European Committee on Antibiotic Susceptibility Testing) and CLSI/NCCLS M27-A2 (Clinical Laboratory Standards Institute/National Committee for Clinical Laboratory Standards). For inoculum preparation, S. parasitica isolates were cultured on GP-PS for 7 days with sterile clover seeds at 18° C. Clover seeds (˜20) covered with mycelium were removed and added to 40 ml of RPMI-1640 broth medium (Sigma; prepared according to NCCLS instructions) and incubated at 18° C. for 4-7 days. Cysts and zoospores free from hyphae were collected, and an inoculum of ˜10^3 CFU/ml as measured by hemacytometer counting, was prepared in RPMI. Fluorescent Brightener 28 stock solution was prepared by adding 40% KOH gradually to a 10 mg/ml solution in water, until it was clear, then it was filtered twice through a 0.2 μm cellulose acetate nonpyrogenic sterile filter (Schleicher & Schuell, Dassel, Germany).
Twofold serial dilutions of the resulting stock solutions were set in RPMI-1640 medium in a volume of 0.1 ml. Final drug concentrations in the test tubes ranged from 1×10^4 to 0.01 mg/L. Inoculum of 0.9 ml was added to each of a sterile tube containing 0.1 ml of the serially diluted drug. Two tubes containing drug-free medium and two tubes containing drug-free inoculum were used as controls. The inoculated tubes were incubated at room temperature (15-20° C.) for 24 h. The growth in each tube was then evaluated visually.
This method is a modification of the method presented by Bailey (Bailey, T. A. (1983) Prog. Fish Cult. 45:24-27), and was used for the susceptibility testing of Saprolegnia hyphae. Twofold serial dilutions were prepared in double distillated sterile water with final drug concentrations ranging from 10,000 to 0.01 mg/L in a final volume of 1.0 ml. Melted (56° C.) RPMI-1640 agar medium (Sigma) was prepared according to NCCLS instructions, and then added to each tube containing drug or water control. The mixture was vortexed, and poured into small plates. After agar solidification a small measured piece, taken from a 7-10 day old culture of S. parasitica T-1 on GP-PS medium was placed upside down on each plate. The plates were incubated at room temperature (15-20° C.) for 24 h.

[4] = system: Gyrodactilus sp. and Trichodina sp.; assay: Non-randomized field trial in a cement pond, concurrent parasitic disease; type: in vivo, hybrid tilapia; conditions: 50 mg/L, 3 treatments of 8 h at 48 h intervals; 2 days after end
Description: (§4) Following transfer of 2000 hybrid tilapia fish (20-30 g) to a cement pond (1×10^5 L, 21 to 25° C.), white patches of filamentous mycelium were observed on the body and fins of fish, covering in most cases about 80% of the body surface. The mycelia appeared about four days after the transfer, presumably due to opportunistic infection by Saprolegnia sp. following handling stress. Death of 20 to 30 fish per day was recorded. All the dead fish were covered with mycelium, characteristic of Saprolegnia sp., and were also found to be infected with the parasites Gyrodactilus sp. and Trichodina sp.
(§5) The water capacity in the pond was decreased to 3×10^4 L, and treatment with Blankophor® BA (50 mg/L) was initiated. A regimen of 3 treatments (8 h each) with 48 hours intervals between them was used.

Saprolegnia sp. = assay: Non-randomized field trial in a cement pond, oomycete disease; type: in vivo, hybrid tilapia; conditions: 50 mg/L
Description: as §4, §5

O=S(=O)([O-])c1cc(Nc2nc(Nc3ccccc3)nc(N(CCO)CCO)n2)ccc1C=Cc1ccc(Nc2nc(Nc3ccccc3)nc(N(CCO)CCO)n2)cc1S(=O)(=O)[O-].[K+].[Na+] [Blankophor® BA]
maximal tolerated dose (MTD) (ICR mice): > 1000 mg/kg
MIC, Agar-dilution (S. parasitica T-1; S. parasitica T-1, 15-20° C., geometric mean of three tests): 200 µg/mL
efficacy in promoting survival of infected fish (S. parasitica [1]): highly effective
photosynthetic activity versus non-treated samples (Microcystis): no difference
total chlorophyll concentration (average) [2]: 9.2 µg/L
Activity in vitro (MIC), grade (S. parasitica [3]; Table 4 summary): Moderate
Activity in vitro (MIC), value (S. parasitica [3]; Table 4 summary): (100 mg/L)
presence of parasites on visual and microscopic examination [4]: free of
presence of Saprolegnia sp. on visual and microscopic examination (Saprolegnia sp.; 3 treatments of 8 h at 48 h intervals, 2 days after end): free of
deaths recorded (Saprolegnia sp.; after the first 8 h treatment): no further deaths
prevalence and intensity of saprolegniosis (Saprolegnia sp.; after the first 8 h treatment): Significant reduction

C=O [Formaldehyde]
MIC (S. parasitica T-1; Saprolegnia parasitica, read-out: MIC, Agar-dilution): 100 µg/mL (≈ 3.33 mM)
MIC (S. parasitica [3]; Saprolegnia parasitica, read-out: Activity in vitro (MIC), value): 100 µg/mL (≈ 3.33 mM)
